SMILES strings stand for the structures.

One assay concerns COS Cell. The experiment in a line: COS Cell IC50 (Cell-Based Assay). As for the experimental part:
FPT IC50 (inhibition of farnesyl protein transferase, in vitro enzyme assay), GGPT IC50 (inhibition of geranylgeranyl protein transferase, in vitro enzyme assay) and COS Cell IC50 (Cell-Based Assay) were determined following the assay procedures described in WO 95/10516, published Apr. 20, 1995. Cell Mat Assay, and anti-tumor activity (in vivo anti-tumor studies) could be determined by the assay procedures described in WO 95/10516. The disclosure of WO 95/10516 is incorporated herein by reference thereto.

The target in assay [1] is farnesyl protein transferase. The assay is described as follows: FPT IC50 (inhibition of farnesyl protein transferase, in vitro enzyme assay). Type of assay: biochemical. An excerpt: In Table 2 "Ex. No." stands for "Example Number". In Table 2, FPT IC50 results are less indicated otherwise.
Another assay concerns Human tumor cells. The assay is described as follows: Soft Agar Assay (anchorage-independent growth). Type of assay: cell-based. The following applies: Table 4, colonies after 10-16 days at 37° C. On the procedure: Soft Agar Assay: Anchorage-independent growth is a characteristic of tumorigenic cell lines. Human tumor cells are suspended in growth medium containing 0.3% agarose and an indicated concentration of a farnesyl transferase inhibitor. The solution is overlayed onto growth medium solidified with 0.6% agarose containing the same concentration of farnesyl transferase inhibitor as the top layer. After the top layer is solidified, plates are incubated for 10-16 days at 37° C. under 5% CO2 to allow colony outgrowth. […] Colonies can be counted and the IC50 's can be determined.

Turning to `NC(=O)c1cncc(C(=O)N2CCC(CC(=O)N3CCC([C@H]4c5ncc(Br)cc5CCc5cc(Cl)cc(Br)c54)CC3)CC2)c1` [Compound 29.0-B], the IC50 worked out at 21 nM in the assay with COS Cell (Table 4), 2.2 nM in assay [1] (Table 3) and 500 nM with Human tumor cells (Homo sapiens).

In assay [1] (Table 2), `N=C(Oc1ccccc1)N1CCC(CC(=O)N2CCC(C3c4ccc(Cl)c(Br)c4CCc4cc(Br)cnc43)CC2)CC1` (centres unmarked) [Example 27] had an IC50 of 39 nM. In other words, the double-digit nanomolar range.

Take `O=C1N[C@H](C(=O)N2CCC(CC(=O)N3CCC([C@H]4c5ncc(Br)cc5CCc5cc(Cl)cc(Br)c54)CC3)CC2)CO1` [Compound 28.0-B]: the IC50 in the assay with COS Cell (Table 4) worked out at 7 nM; in assay [1] (Table 3) it was 2.3 nM; in the assay on Human tumor cells (Homo sapiens), 120 nM.

For the molecule `N=C(NC(=O)NC(N)=O)N1CCC(CC(=O)N2CCN(C3c4ccc(Cl)cc4CCc4cc(Br)cnc43)CC2)CC1` (centres unmarked) [Example 14, N-[[(AMINOCARBONYL)AMINO]CARBONYL]-4-[2-[4-(3-BROMO-8-CHLORO-6,11-DIHYDRO-5H-BENZO[5,6]CYCLOHEPTA[1,2-b]-PYRIDIN-11-YL)-1-PIPERAZINYL]2-OXOETHYL]-1-PIPERIDINECARBOXIMIDAMIDE], the IC50 in assay [1] (Table 2) is 78 nM.

On to `N#CN1CCC(CC(=O)N2CCN(C3c4ccc(Cl)cc4CCc4cc(Br)cnc43)CC2)CC1` (centres unmarked) [Example 4], for which, in assay [1] (Table 2), the IC50 came out at 54.3 nM.

Regarding `CC(=O)N1CCC(CC(=O)N2CCC([C@H]3c4ncc(Br)cc4CCc4cc(Cl)cc(Br)c43)CC2)CC1` [Compound 36.0-B], the IC50 was 50 nM in the assay with COS Cell (Table 4), 2.6 nM in assay [1] (Table 3), 180 nM with Human tumor cells (Homo sapiens) and 170 nM in the assay with Human tumor cells.

As for `O=C(CC1CCN(C(=O)c2cccn2Cc2ccccc2)CC1)N1CCC([C@H]2c3ncc(Br)cc3CCc3cc(Cl)cc(Br)c32)CC1` [Compound 41.0-B], the values for the IC50 (in the assay with COS Cell (Table 4); in assay [1] (Table 3); with Human tumor cells (Homo sapiens)) were 30 nM, 1.7 nM and over 500 nM, respectively.

On to `N#CN=C(Oc1ccccc1)N1CCC(CC(=O)N2CCN(C3c4ccc(Cl)cc4CCc4cc(Br)cnc43)CC2)CC1` (centres unmarked) [Example 1, PHENYL 4-[2-[4-(3-BROMO-8-CHLORO-6,11-DIHYDRO-5H-BENZO[5,6]CYCLOHEPTA[1,2-b]PYRIDIN-11-YL]-1-PIPERAZINYL]-2-OXOETHYL]-N-CYANO-1-PIPERIDINE-CARBOXIMIDATE], for which the “FPT inhibition (column FPT IC50)” value in assay [1] (@ 0.3 μM, Table 2) was determined as 44%.

Turning to `N#CN1CCC(CC(=O)N2CCC([C@H]3c4ncc(Br)cc4CCc4cc(Cl)cc(Br)c43)CC2)CC1` [Example 26], the IC50 with COS Cell (Table 2) is 12 nM; in assay [1] (Table 2) it was 2.3 nM.

Turning to `NC(=O)O[C@H]1CC[C@@H](C(=O)N2CCC(CC(=O)N3CCC([C@H]4c5ncc(Br)cc5CCc5cc(Cl)cc(Br)c54)CC3)CC2)CC1` [Compound 94.0-B], the IC50 came out at 25 nM in the assay with COS Cell (Table 4), 4 nM in assay [1] (Table 3) and 210 nM with Human tumor cells (Homo sapiens).

For `O=C1NC[C@@H](C(=O)N2CCC(CC(=O)N3CCC([C@H]4c5ncc(Br)cc5CCc5cc(Cl)cc(Br)c54)CC3)CC2)N1` [Compound 15.0-B], the IC50 in the assay with COS Cell (Table 4) stood at 33 nM; in assay [1] (Table 3), 2 nM; in the assay on Human tumor cells (Homo sapiens), 280 nM; in the assay with Human tumor cells, 370 nM.

Turning to `O=C(CC1CCN(C(=O)[C@@H]2CSCN2)CC1)N1CCC([C@H]2c3ncc(Br)cc3CCc3cc(Cl)cc(Br)c32)CC1` [Compound 80.0-B], the IC50 in assay [1] (Table 3) was 2.6 nM; with Human tumor cells (Homo sapiens), over 500 nM.

On to `O=C(O)Cn1cccc1C(=O)N1CCC(CC(=O)N2CCC([C@H]3c4ncc(Br)cc4CCc4cc(Cl)cc(Br)c43)CC2)CC1` [Compound 62.0-B], for which the IC50 in the assay with COS Cell (Table 4) was 700 nM; in assay [1] (Table 3), 2.8 nM; in the assay on Human tumor cells (Homo sapiens), over 500 nM.

Regarding `O=C(CC1CCN(C(=O)c2ccc[n+]([O-])c2)CC1)N1CCC([C@H]2c3ncc(Br)cc3CCc3cc(Cl)cc(Br)c32)CC1` [Compound 46.0-B], the figures for the concentration for half-maximal inhibition (IC50) (with COS Cell (Table 4); in assay [1] (Table 3); in the assay on Human tumor cells (Homo sapiens)) were 7 nM, 1.9 nM and 165 nM, respectively.

`N#CNC(=N)N1CCC(CC(=O)N2CCN(C3c4ccc(Cl)cc4CCc4cc(Br)cnc43)CC2)CC1` (centres unmarked) [Example 2, 4-[2-[4-(3-BROMO-8-CHLORO-6,11-DIHYDRO-5 H-BENZO[5,6]CYCLOHEPTA[1,2-b]PYRIDIN-11-YL)-1-PIPERAZINYL]-2-OXOETHYL]-N-CYANO-1-PIPERIDINE-CARBOXIMIDAMIDE]: in assay [1] (Table 2), the midpoint of inhibition, the IC50, lay at 100 nM.

For `CCn1cccc1C(=O)N1CCC(CC(=O)N2CCC([C@H]3c4ncc(Br)cc4CCc4cc(Cl)cc(Br)c43)CC2)CC1` [Example 54], the IC50 with COS Cell (Table 4) was 40 nM; in assay [1] (Table 3), 7.8 nM; in the assay with Human tumor cells (Homo sapiens) it was over 500 nM.

With `O=C(CC1CCN(C(=O)[C@H]2CC[C@@H](O)CC2)CC1)N1CCC([C@H]2c3ncc(Br)cc3CCc3cc(Cl)cc(Br)c32)CC1` [Compound 73.0-B], the IC50 in the assay on COS Cell (Table 4) turned out to be 24 nM; in assay [1] (Table 3) it was 4.5 nM; in the assay with Human tumor cells (Homo sapiens) it was 360 nM.

Molecule `CC(C)(C)OC(=O)Cn1cccc1C(=O)N1CCC(CC(=O)N2CCC([C@H]3c4ncc(Br)cc4CCc4cc(Cl)cc(Br)c43)CC2)CC1` [Compound 61.0-B] displayed an IC50 in assay [1] (Table 3) of 11 nM.

With `O=C(CC1CCN(C(=O)c2ccc(O)nc2)CC1)N1CCC([C@H]2c3ncc(Br)cc3CCc3cc(Cl)cc(Br)c32)CC1` [Compound 47.0-B], the IC50 in the assay on COS Cell (Table 4) worked out at 35 nM; in assay [1] (Table 3), 2.9 nM; with Human tumor cells (Homo sapiens), 450 nM.

For the molecule `O=C(CC1CCN(C(=O)c2cn[nH]c2)CC1)N1CCC([C@H]2c3ncc(Br)cc3CCc3cc(Cl)cc(Br)c32)CC1` [Compound 31.0-B], the 50% inhibitory concentration (IC50) in the assay on COS Cell (Table 4) is 7 nM; in assay [1] (Table 3), 3 nM; in the assay on Human tumor cells (Homo sapiens) it was 150 nM.

As for `O=C1C[C@@H](C(=O)N2CCC(CC(=O)N3CCC([C@H]4c5ncc(Br)cc5CCc5cc(Cl)cc(Br)c54)CC3)CC2)NC(=O)N1` [Compound 78.0-B], the IC50 came out at 30 nM in the assay on COS Cell (Table 4), 2.6 nM in assay [1] (Table 3) and 170 nM with Human tumor cells (Homo sapiens).

For the molecule `CS(=O)(=O)n1cccc1C(=O)N1CCC(CC(=O)N2CCC([C@H]3c4ncc(Br)cc4CCc4cc(Cl)cc(Br)c43)CC2)CC1` [Compound 43.0-B], the IC50 in the assay on COS Cell (Table 4) is under 10 nM; in assay [1] (Table 3), 3.8 nM; in the assay with Human tumor cells (Homo sapiens), 200 nM.

With `O=C(CC1CCN(C(=O)c2ccoc2)CC1)N1CCC([C@H]2c3ncc(Br)cc3CCc3cc(Cl)cc(Br)c32)CC1` [Compound 84.0-B], the concentration for half-maximal inhibition (IC50) in the assay on COS Cell (Table 4) came to 11 nM; in assay [1] (Table 3), 8.5 nM; in the assay on Human tumor cells (Homo sapiens) it was 100 nM.

Turning to `N=C(N)N1CCC(CC(=O)N2CCC(C3c4ccc(Cl)c(Br)c4CCc4cc(Br)cnc43)CC2)CC1` (centres unmarked) [Example 28], the inhibition at 1 µM in the assay with COS Cell (@ 1 μM, Table 2) came out at 0%. Moreover, in assay [1] (Table 2), 23 nM corresponded to half-maximal inhibition (IC50).

With `NC(=NO)N1CCC(CC(=O)N2CCN(C3c4ccc(Cl)cc4CCc4cc(Br)cnc43)CC2)CC1` (centres unmarked) [Example 11, 4-[2-[4-(3-BROMO-8-CHLORO-6,11-DIHYDRO-5 H-BENZO[5,6CYCLOHEPTA[1,2-b]PYRIDIN-11-YL-1-PIPERAZINYL]-2-OXOETHYL]-N-HYDROXY-1-PIPERIDINE-CARBOXIMIDATE], it took 58 nM to reach half-maximal inhibition in assay [1] (Table 2) (IC50).

In the case of `O=C(CC1CCN(C(=O)c2cccnc2O)CC1)N1CCC([C@H]2c3ncc(Br)cc3CCc3cc(Cl)cc(Br)c32)CC1` [Compound 48.0-B], the IC50 in the assay on COS Cell (Table 4) was 47 nM; in assay [1] (Table 3) it was 2.1 nM; in the assay on Human tumor cells (Homo sapiens), over 500 nM.

On to `O=C(CC1CCN(C(=O)c2ncccc2O)CC1)N1CCC([C@H]2c3ncc(Br)cc3CCc3cc(Cl)cc(Br)c32)CC1` [Compound 83.0-B], for which the IC50 with COS Cell (Table 4) turned out to be 12 nM; in assay [1] (Table 3), 3.2 nM; in the assay on Human tumor cells (Homo sapiens) it was 500 nM.

Regarding `O=C(O)c1cncc(C(=O)N2CCC(CC(=O)N3CCC([C@H]4c5ncc(Br)cc5CCc5cc(Cl)cc(Br)c54)CC3)CC2)c1` [Compound 25.0-B], the IC50 was over 1000 nM in the assay on COS Cell (Table 4), 0.8 nM in assay [1] (Table 3) and over 500 nM in the assay with Human tumor cells (Homo sapiens).

For `O=C(NC(=O)C(Cl)(Cl)Cl)O[C@H]1CC[C@@H](C(=O)N2CCC(CC(=O)N3CCC([C@H]4c5ncc(Br)cc5CCc5cc(Cl)cc(Br)c54)CC3)CC2)CC1` [Compound 93.0-B], the values for the IC50 (in the assay on COS Cell (Table 4); in assay [1] (Table 3); in the assay with Human tumor cells (Homo sapiens)) were 30 nM, 5.7 nM and 410 nM, respectively.

`O=C(CC1CCN(C(=O)c2ccc(O)nc2)CC1)N1CCC([C@@H]2c3c(Br)cc(Cl)cc3CCc3cc(Br)c[n+]([O-])c32)CC1` [Compound 91.0-B]: the values for the IC50 (in the assay with COS Cell (Table 4); in assay [1] (Table 3); in the assay with Human tumor cells (Homo sapiens)) were 500 nM, 2.5 nM and over 500 nM, respectively.

Turning to `Cc1noc(C)c1C(=O)N1CCC(CC(=O)N2CCC([C@H]3c4ncc(Br)cc4CCc4cc(Cl)cc(Br)c43)CC2)CC1` [Compound 27.0-B], the IC50 is 10 nM in the assay with COS Cell (Table 4), 4 nM in assay [1] (Table 3) and 370 nM in the assay on Human tumor cells (Homo sapiens).

The molecule `N=C(NS(N)(=O)=O)N1CCC(CC(=O)N2CCN(C3c4ccc(Cl)cc4CCc4cc(Br)cnc43)CC2)CC1` (centres unmarked) [Example 6, 4-[2-[4-(3-BROMO-8-CHLORO-6,11-DIHYDRO-5H-BENZO[5,6]CYCLOHEPTA[1,2-b]PYRIDIN-11-YL)-1-PIPERAZINYL]2-OXOETHYL]-N-SULFAMOYL-1-PIPERIDINE-CARBOXIMIDAMIDE] gave an IC50 in assay [1] (Table 2) of 120 nM.

In turn, `NC(=O)NC(=O)N=C(Oc1ccccc1)N1CCC(CC(=O)N2CCN(C3c4ccc(Cl)cc4CCc4cc(Br)cnc43)CC2)CC1` (centres unmarked) [Example 13, PHENYL N- [[(AMINOCARBONYL)AMINO]CARBONYL]4-[2-[4-(3-BROMO-8-CHLORO-6,11-DIHYDRO-5 H-BENZO[5,6CYCLOHEPTA-[1,2-b]PYRIDIN-11-YL)-1-PIPERAZINYL]-2-OXOETHYL]-1-PIPERIDINECARBOXIMIDATE] had an IC50 in assay [1] (Table 2) of 140 nM.
